Experiment [1] deals with T1, human mAChR M1 (Homo sapiens, UniProt P11229).
T1 construct: host or cells: CHO-K1 cells (ATCC), stably transfected using Lipofectamine2000
T1 sequence (P11229 1-460): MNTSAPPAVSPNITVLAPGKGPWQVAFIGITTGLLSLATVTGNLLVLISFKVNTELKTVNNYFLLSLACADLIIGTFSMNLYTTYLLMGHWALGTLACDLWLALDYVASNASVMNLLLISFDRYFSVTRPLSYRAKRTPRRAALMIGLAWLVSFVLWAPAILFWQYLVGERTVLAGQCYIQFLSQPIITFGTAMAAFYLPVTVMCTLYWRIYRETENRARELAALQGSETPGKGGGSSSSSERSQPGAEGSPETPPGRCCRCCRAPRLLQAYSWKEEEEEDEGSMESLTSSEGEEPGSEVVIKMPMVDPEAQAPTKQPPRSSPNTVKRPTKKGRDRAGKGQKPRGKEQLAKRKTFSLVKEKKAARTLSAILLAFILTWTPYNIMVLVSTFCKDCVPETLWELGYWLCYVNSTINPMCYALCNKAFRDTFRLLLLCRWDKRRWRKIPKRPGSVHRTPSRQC
Briefly: mAChR M1 cell-based functional assay (calcium mobilization), PAM activity: increase in the EC20 acetylcholine response. The following applies: CHO-K1 cells expressing hM1; potentiation of EC20 acetylcholine response. The source says: (§1) Chinese hamster ovary (CHO-K1) cells stably expressing rat (r)M1 were purchased from the American Type Culture Collection and cultured according to their indicated protocol. CHO cells stably expressing human (h)M2, hM3, and hM5 were described previously (Levey, et al., 1991); hM1 and hM4 cDNAs were purchased from Missouri S&T cDNA Resource; rM4 cDNA was provided by T. L. Bonner (National Institutes of Health, Bethesda, MID). rM2 and rM3 were cloned from a rat brain cDNA library and sequence verified. hM1, rM2, rM3, hM4, and rM4 cDNAs were used to stably transfect CHO-K1 cells purchased from the American Type Culture Collection using Lipofectamine2000. To make stable rM2, hM2, rM3, hM4, and rM4 cell lines for use in calcium mobilization assays, these cells also were stably transfected with a chimeric G-protein (Gqi5) (provided by B. R. Conklin, University of California, San Francisco) using Lipofectamine 2000. rM1, hM1, rM3, hM3, rM5, and hM5 cells were grown in Ham's F-12 medium containing 10% heat-inactivated fetal bovine serum (FBS), 20 mM HEPES, and 50 μg/mL G418 sulfate. rM2-Gq15, hM2-Gqi5, and hM4-Gqi5 cells were grown in the same medium also containing 500 μg/mL Hygromycin B. Stable rM4-Gqi5 cells were grown in DMEM containing 10% heat-inactivated FBS, 20 mM HEPES, 400 μg/mL G418 sulfate, and 500 μg/mL Hygromycin B.
(§2) For high throughput measurement of agonist-evoked increases in intracellular calcium, CHO-K1 cells stably expressing muscarinic receptors were plated in growth medium lacking G418 and hygromycin at 15,000 cells/20 μL/well in Greiner 384-well black-walled, tissue culture (TC)-treated, clear-bottom plates (VWR). Cells were incubated overnight at 37° C. and 5% CO2. The next day, cells were washed using an ELX 405 (BioTek) with four washes (80 μL) of assay buffer then aspirated to 20 μL. Next, 20 μL of 16 μM Fluo-4/acetoxymethyl ester (Invitrogen, Carlsbad, Calif.) prepared as a 2.3 mM stock in DMSO and mixed in a 1:1 ratio with 10% (w/v) Pluronic F-127 and diluted in assay buffer was added to the wells and the cell plates were incubated for 50 min at 37° C. and 5% CO2. Dye was removed by washing with the ELX 405 (four 80 μL washes of assay buffer) then aspirated to 20 μL. Compound master plates were formatted in an 11 point CRC format (1:3 dilutions) in 100% DMSO with a starting concentration of 10 mM using the BRAVO liquid handler (Agilent). Test compound CRCs were then transferred to daughter plates (240 nL) using the Echo acoustic plate reformatter (Labcyte, Sunnyvale, Calif.) and then diluted into assay buffer (40 μL) to a 2× stock using a Thermo Fisher Combi (Thermo Fisher Scientific, Waltham, Mass.).
(§3) Calcium flux was measured using the Functional Drug Screening System (FDSS) 6000 (Hamamatsu Corporation, Tokyo, Japan) as an increase in the fluorescent static ratio. Compounds were applied to cells (20 μL, 2×) using the automated system of the FDSS 6000 at 4 s into the 300 s protocol and the data were collected at 1 Hz. At 144 s into the 300s protocol, 10 μL of an EC20 concentration of the muscarinic receptor agonist acetylcholine was added (5×), followed by the addition of 12 μL an EC80 concentration of acetylcholine at the 230 s time point (5×). Agonist activity was analyzed as a concentration-dependent increase in calcium mobilization upon compound addition. Emax values for agonist activity are expressed relative to the maximum for acetylcholine. Positive allosteric modulator activity was analyzed as a concentration-dependent increase in the EC20 acetylcholine response. Antagonist activity was analyzed as a concentration-dependent decrease in the EC80 acetylcholine response. Concentration-response curves were generated using a four-parameter logistical equation in XLfit curve fitting software (IDBS, Bridgewater, N.J.) for Excel (Microsoft, Redmond, Wash.) or Prism (GraphPad Software, Inc., San Diego, Calif.). […]

In experiment [2] the target is T1, human mAChR M1. Briefly: mAChR M1 cell-based functional assay (calcium mobilization), agonist activity upon compound addition. The following applies: CHO-K1 cells expressing hM1; for EC50: compound alone, before acetylcholine addition; for Emax: relative to the maximum for acetylcholine.
Text: as §1, §2, §3

We go through 14 compounds from US20220041606A1, “POSITIVE ALLOSTERIC MODULATORS OF THE MUSCARINIC ACETYLCHOLINE RECEPTOR M1” (Vanderbilt University, priority 2020, published 2022).

Usually EC50 stands for the concentration giving half of the maximal effect. What is called Emax is the maximal effect, on the per cent scale that the assay sets.

Molecules are shown by their SMILES. Some results are limits rather than exact numbers.

As for `O=C(N[C@H]1CCCC[C@@H]1O)c1cn(Cc2ccc(-n3cccn3)cc2)c(=O)c2cccnc12` [Compound A13, 6-(4-(1H-pyrazol-1-yl)benzyl)-N-((1S,2S)-2-hydroxycyclohexyl)-5-oxo-5,6-dihydro-1,6-naphthyridine-8-carboxamide], the results for the EC50 on human mAChR M1 [1] and on human mAChR M1 [2] were 1130 nM and 8950 nM, respectively. The Emax at human mAChR M1 [1] came out at 71%; on human mAChR M1 [2] it was 21%.

With `O=C(N[C@H]1CCC[C@@H]1O)c1cn(Cc2ccc(-n3cccn3)cc2)c(=O)c2cccnc12` [Compound A14, 6-(4-(1H-pyrazol-1-yl)benzyl)-N-((1S,2S)-2-hydroxycyclopentyl)-5-oxo-5,6-dihydro-1,6-naphthyridine-8-carboxamide], at human mAChR M1 [1], the EC50 is 7780 nM and the Emax turned out to be 64%. In addition, at human mAChR M1 [2], the EC50 was above 10000 nM and the Emax is below 5%.

On to `Cn1cc(-c2ccc(Cn3cc(C(=O)N[C@H]4CCOC[C@@H]4O)c4ncccc4c3=O)cn2)cn1` [Compound A15, N-((3R,4S)-3-hydroxytetrahydro-2H-pyran-4-yl)-6-((6-(1-methyl-1H-pyrazol-4-yl)pyridin-3-yl)methyl)-5-oxo-5,6-dihydro-1,6-naphthyridine-8-carboxamide], for which the EC50 on human mAChR M1 [1] was 1370 nM. In addition, the figures for the Emax at human mAChR M1 [1] and on human mAChR M1 [2] were 68% and 34%, respectively.

As for `Cn1cc(-c2ccc(Cn3cc(C(=O)N[C@H]4CCCC[C@@H]4O)c4ncccc4c3=O)cn2)cn1` [Compound A16, N-((1S,2S)-2-hydroxycyclohexyl)-6-((6-(1-methyl-1H-pyrazol-4-yl)pyridin-3-yl)methyl)-5-oxo-5,6-dihydro-1,6-naphthyridine-8-carboxamide], on human mAChR M1 [1], the EC50 worked out at 980 nM and the Emax was 68%. Besides, the maximal response (Emax) on human mAChR M1 [2] came out at 27%.

For the compound `Cn1cc(-c2ccc(Cn3cc(C(=O)N[C@H]4CCC[C@@H]4O)c4ncccc4c3=O)cn2)cn1` [Compound A17, N-((1S,2S)-2-hydroxycyclopentyl)-6-((6-(1-methyl-1H-pyrazol-4-yl)pyridin-3-yl)methyl)-5-oxo-5,6-dihydro-1,6-naphthyridine-8-carboxamide], the EC50 was at least 10000 nM at human mAChR M1 [1] and above 10000 nM on human mAChR M1 [2]. The Emax is 55% on human mAChR M1 [1] and below 5% at human mAChR M1 [2].

As for `Cn1cc(-c2ccc(Cn3cc(C(=O)N[C@H]4CCCCC[C@@H]4O)c4ncccc4c3=O)cn2)cn1` [Compound A18, N-((1S,2S)-2-hydroxycycloheptyl)-6-((6-(1-methyl-1H-pyrazol-4-yl)pyridin-3-yl)methyl)-5-oxo-5,6-dihydro-1,6-naphthyridine-8-carboxamide], at human mAChR M1 [1], the EC50 came out at 1660 nM and the Emax came to 60%. On human mAChR M1 [2], the EC50 was above 10000 nM and the Emax was below 5%.

On to `Cc1nc(-c2ccc(Cn3cc(C(=O)N[C@H]4CCOC[C@@H]4O)c4ncccc4c3=O)cc2)co1` [Compound A19, N-((3R,4S)-3-hydroxytetrahydro-2H-pyran-4-yl)-6-(4-(2-methyloxazol-4-yl)benzyl)-5-oxo-5,6-dihydro-1,6-naphthyridine-8-carboxamide], for which, on human mAChR M1 [1], the EC50 is 2490 nM and the Emax was 67%. The Emax on human mAChR M1 [2] is 20%.

As for `Cc1nc(-c2ccc(Cn3cc(C(=O)N[C@H]4CCCC[C@@H]4O)c4ncccc4c3=O)cc2)co1` [Compound A20, N-((1S,2S)-2-hydroxycyclohexyl)-6-(4-(2-methyloxazol-4-yl)benzyl)-5-oxo-5,6-dihydro-1,6-naphthyridine-8-carboxamide], at human mAChR M1 [1], the EC50 was determined as 780 nM and the Emax was found to be 63%. At human mAChR M1 [2], the EC50 is above 10000 nM and the Emax is below 5%.

Turning to `Cn1cc2c(-c3cc(F)c(Cn4cc(C(=O)N[C@H]5CCOC[C@@H]5O)c5ncccc5c4=O)c(F)c3)cccc2n1` [Compound A21, 6-(2,6-difluoro-4-(2-methyl-2H-indazol-4-yl)benzyl)-N-((3R,4S)-3-hydroxytetrahydro-2H-pyran-4-yl)-5-oxo-5,6-dihydro-1,6-naphthyridine-8-carboxamide], on human mAChR M1 [1], the EC50 came to 19 nM and the Emax amounted to 72%. Further, at human mAChR M1 [2], the EC50 was 1230 nM and the Emax worked out at 31%.

With `Cn1cc2c(-c3cc(F)c(Cn4cc(C(=O)N[C@H]5CCCC[C@@H]5O)c5ncccc5c4=O)c(F)c3)cccc2n1` [Compound A22, 6-(2,6-difluoro-4-(2-methyl-2H-indazol-4-yl)benzyl)-N-((1S,2S)-2-hydroxycyclohexyl)-5-oxo-5,6-dihydro-1,6-naphthyridine-8-carboxamide], the EC50 is 52 nM at human mAChR M1 [1] and above 10000 nM at human mAChR M1 [2]. Besides, the figures for the Emax on human mAChR M1 [1] and on human mAChR M1 [2] were 67% and below 5%, respectively.

Regarding `Cn1cc2c(-c3cc(F)c(Cn4cc(C(=O)N[C@H]5CCCCC[C@@H]5O)c5ncccc5c4=O)c(F)c3)cccc2n1` [Compound A23, 6-(2,6-difluoro-4-(2-methyl-2H-indazol-4-yl)benzyl)-N-((1S,2S)-2-hydroxycycloheptyl)-5-oxo-5,6-dihydro-1,6-naphthyridine-8-carboxamide], the EC50 is 210 nM at human mAChR M1 [1] and above 10000 nM on human mAChR M1 [2]. The figures for the Emax at human mAChR M1 [1] and on human mAChR M1 [2] were 67% and below 5%, respectively.

With `Cn1cc(-c2ccc(Cn3cc(C(=O)N[C@H]4CCCCC[C@@H]4O)c4ncccc4c3=O)c(F)c2)cn1` [Compound A24, 6-(2-fluoro-4-(1-methyl-1H-pyrazol-4-yl)benzyl)-N-((1S,2S)-2-hydroxycycloheptyl)-5-oxo-5,6-dihydro-1,6-naphthyridine-8-carboxamide], the figures for the EC50 on human mAChR M1 [1] and at human mAChR M1 [2] were 350 nM and 6120 nM, respectively. The results for the Emax on human mAChR M1 [1] and at human mAChR M1 [2] were 69% and 16%, respectively.

Consider `O=C(N[C@H]1CCCCC[C@@H]1O)c1cn(Cc2ccc(-n3cccn3)cc2)c(=O)c2cccnc12` [Compound A25, 6-(4-(1H-pyrazol-1-yl)benzyl)-N-((1S,2S)-2-hydroxycycloheptyl)-5-oxo-5,6-dihydro-1,6-naphthyridine-8-carboxamide], for which, on human mAChR M1 [1], the EC50 worked out at 970 nM and the Emax is 68%. On human mAChR M1 [2], the EC50 was above 10000 nM and the Emax was below 5%.

`Cc1cc(-c2ccc(Cn3cc(C(=O)N[C@H]4CCOC[C@@H]4O)c4ncccc4c3=O)c(F)c2)ccn1` [Compound A26, 6-(2-fluoro-4-(2-methylpyridin-4-yl)benzyl)-N-((3R,4S)-3-hydroxytetrahydro-2H-pyran-4-yl)-5-oxo-5,6-dihydro-1,6-naphthyridine-8-carboxamide]: on human mAChR M1 [1], the EC50 came out at 490 nM and the Emax worked out at 75%. Moreover, at human mAChR M1 [2], the Emax is 10%.
